Experimental data as given in patent US20230365639A1, “DEFENSIN FRAGMENT DERIVED LIPOPEPTIDES FOR TREATMENT OF DRUG-RESISTANT MICROORGANISMS” (priority 2020, published 2023).

Tests used:
[1] = system: several pathogenic bacteria; test: Radial diffusion assay and MIC screening for antimicrobial activity; format: cell-based; conditions: radial diffusion assay and MIC determinations
Procedure: Methods: Log-phase bacteria were cultivated for up to 18 hours in TSB (TSB, Becton Dickinson, USA), washed and diluted to 4×10^6 CFU in 10 ml agar. Bacteria were incubated in 10 ml of 10 mM sodium phosphate, pH 7.4, containing 0.3 mg/ml of TSB powder and 1% (w/v) low EEO-agarose (AppliChem). Lipopeptides were pipetted into punched wells and diffused into the gel for 3 hours at 37° C. After that, a nutrient-rich gel with 6% TSB (w/v) and 1% agarose in 10 mM sodium phosphate buffer was poured on top of the first gel and incubated for up to 24 hours at 37° C. Then the diameter of inhibition zones was measured.
Clinical isolates of A. baumannii DSM30007, E. faecium DSM2918, K. pneumoniae DSM30104 and P. aeruginosa DSM1117 were provided by the Department for Laboratory Medicine at Robert-Bosch-Hospital Stuttgart, Germany. C. rodentium DSM16636 and E. coli DSM8695 were obtained from the Deutsche Sammlung von Mikroorganismen and Zellkultur GmbH Braunschweig, Germany. […]

[2] = Cellular toxicity, WST-1 cell proliferation assay; format: cell-based
Procedure: Methods: Cellular toxicity was determined by Lactate dehydrogenase concentration and WST-1 cell proliferation assay as well as hemolysis assay.

[3] = system: C. rodentium strain ICC180; test: Established gastrointestinal infection caused by C. rodentium; format: in vivo, mice; conditions: two doses of 250 μg orally 5 days post infection; content or tissue not specified
Procedure: All mice were euthanized by asphyxiation with CO2 at indicated time points. Intestinal tissues (small intestine, cecum, colon) were removed aseptically. To collect intestinal content, organs were flushed with PBS. Organs were opened longitudinally, cleaned thoroughly with PBS and weighted. Organs and content were homogenized in PBS using a Polytron homogenizer (Kinemtatica). Dilutions of homogenized samples were plated on LB plates containing 50 μg/ml kanamycin to determine CFUs.
Methods: Citrobacter rodentium infection. Bioluminescence expressing C. rodentium strain ICC180 was used for all infection experiments (Wiles et al., 2004). C. rodentium inoculae were prepared by culturing bacteria overnight at 37° C. in LB broth with 50 μg/mI kanamycin. Subsequently, the culture was diluted 1:100 in fresh medium, and sub-cultured for 4 hours at 37° C. in LB broth (Thiemann et al., 2017). Bacteria were washed twice in phosphate-buffered saline (PBS). Mice were orally inoculated with 10^8 CFU of C. rodentium diluted in 200 μl PBS. Weight of the mice was monitored and feces was collected for measurements of the pathogen burden. 5 days post infection mice received twice 250 μg peptide solved in 100 μl PBS or only PBS orally. The following day, mice were sacrificed to assess bacterial burden in the lumen and tissues of the cecum and the colon. […]

Pam2-Glc-Suc-RGKAKCCK [Pam-1]
antimicrobial activity, inhibition of bacterial growth of the tested strains [1]: generally inactive
metabolic activity (WST-1 assay) [2]: normal metabolic activity
CFU's of C. rodentium in cecum [3]: did not reduce
CFU's of C. rodentium in colon [3]: did not reduce
